Results: publication PMC9122897, “SHR1032, a novel STING agonist, stimulates anti-tumor immunity and directly induces AML apoptosis” (Scientific Reports, 2022)
Read-outs that look alike come from different tables or passages of the source. One block for each compound: values may come before it.

What was measured:
THP1-STING-R232 cells = test: CellTiter-Glo cell growth; format: cell-based, human
Description: (§1) (a–d) AML cells were treated with STING agonists and standard of care cytarabine, and cell viability was measured by CellTiter Glo in (a) THP1-STING-R232, (b) THP1-STING-KO, (c) MV-4-11 and (d) MOLM-16. (e) MV-4-11, MOLM-16 and THP1-STING-KO cells were stimulated with 1 µM of SHR1032 for the indicated time points. The amount of pTBK1, total TBK1, pSTING, total STING and α-tubulin was measured by Western blot. pSTING phosphorylated STING. THP1 reporter cells were treated for 24 h with a total of 100 k cells and 150 ul media in each well a 96-well plate. Following the incubation, 20 µl of supernatant was transferred to an opaque 96 well ½ area plate and incubated for 30 s with 50 µl of QUANTI-Luc substrate (InvivoGen) per manufacturer’s instructions. Luminescence signal was measured using Tecan infinite M1000. EC50 values were calculated using non-linear regression analysis of GraphPad Prism. Cell growth was monitored by CellTiter-Glo Luminescent Cell Viability Assay (Promega) per manufacture’s protocol. GI50 values were calculated using non-linear regression analysis of GraphPad Prism. Cell lysates for western blotting were made in RIPA buffer (Sigma) with Halt Protease and Phosphatase Inhibitors (Thermo Scientific). Antibodies against pSTING, TBK1, pTBK1 and tubulin were purchased from Cell Signaling Technologies, and anti-STING was purchased from Protein Tech.

THP1-STING-KO cells = test: CellTiter-Glo cell growth; format: cell-based, human
Description: as §1

[1] = tested on: MC38 mouse syngeneic colorectal adenocarcinoma; test: MC38 syngeneic tumor model; format: in vivo, C57BL/6 mouse; details: 50 µg intratumorally on day 1, 5, 8; after 21 days since the first dosing
Description: Figure 3 Robust cytokine induction and antitumor effects in vivo. (a,b) C57BL/6 mice were inoculated with mouse MC38 colon cancer cells in the left flank. When tumor volumes were 100 mm^3, they received intratumoral (IT) dose of 100 µg of SHR1032 on day 1, 5, 8 and 12 or IT dose of 50 µg ADU-S100 on day 1, 5, and 8, or vehicle, respectively. (a) Tumor volume was measured at different time points. Results are shown as mean tumor volume ± sem. (n = 8 animals per group). (b) Mouse bodyweight was measured at different time points. (c–f) C57BL/6 mice were inoculated with mouse MC38 colon cancer cells in the left flank. When tumor volumes were 100 mm^3, they received one IT dose of 100 µg of SHR1032 or 50 µg ADU-S100, or vehicle. (c) IFNβ, (d) IL-6 and (e) TNFα from both tumor and plasma was measured by ELISA 4 h after. (f) SHR1032 compound concentration in tumors were measured.
Human and Cynomolgous PBMC’s were thawed and spun down in Lymphocyte media (ZENBIO) and resuspended in media to 1.5 x 10^6 cells/ml density. Mouse RAW 264.7 cells were detached from the flask and resuspended in media to 1.5 x 10^6 cells/ml density. Then, 100 µl of media containing the cells was added to each well of a 96-well plate containing compound in 50 µl of media. Plates were incubated for 5 h at 37 °C and supernatant was collected for ELISA analysis. Human and monkey IFN-β protein concentration was measured using human IFN-β Quantikine ELISA Kits (R&D Systems) per manufacture’s protocol. Mouse IFN-β was measured using mouse IFN-β Quantikine ELISA Kits (R&D Systems) per manufacture’s protocol. Mouse TNFα, IFN-β and IL-6 in the tumor lysates and plasma was measured by Quantikine ELISA Kits (R&D Systems) per manufacture’s protocol.
Female C57BL/6 mice, aged between 8 and 10 weeks old, were purchased from Charles River Lab. MC38 mouse colorectal cancer cells were resuspended as single cell solution in PBS at a concentration of 5 × 10^6 cells/ml. One hundred µl of cell suspension were implanted in the right flank of mice subcutaneously. Tumor size was measured by a caliper in three dimensions and its volume was then calculated according to the following formula: Tumor Volume (mm^3) = l * w * h * 0.5236, where l = length, w = width and h = height in mm for a tumor. When the average tumor volume reached around 100 mm^3, the mice were randomly assigned into three groups (n = 8) and each group of mice received one regimen. This day was assigned as day 0 for the study. […] Tumor volume and body weight were measured 3 times per week throughout the study. […] Cytokines and SHR1032 concentration in the plasma and tumor tissues were analyzed. […]

MOLM-16 cells = test: CellTiter-Glo cell growth; format: cell-based; details: Homo sapiens, MOLM16; MOLM-16, CellTiter Glo
Description: as §1

MV4-11 cells = test: CellTiter-Glo cell growth; format: cell-based; details: Homo sapiens; MV4-11, CellTiter Glo
Description: as §1

human STING = biological target: T1, human STING (Homo sapiens, UniProt Q86WV6); test: Thermal shift assay; format: binding; details: human STING protein 5 uM; ligand bound vs apo
T1 construct: made in house; host or cells: E. coli
T1 sequence (Q86WV6 155-341 limits assumed): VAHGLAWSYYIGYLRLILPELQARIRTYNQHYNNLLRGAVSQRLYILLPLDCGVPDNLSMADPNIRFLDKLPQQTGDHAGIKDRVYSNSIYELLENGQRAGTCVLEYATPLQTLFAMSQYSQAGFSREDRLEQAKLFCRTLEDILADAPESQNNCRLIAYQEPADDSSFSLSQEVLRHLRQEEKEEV
Text: (§2) We sought to develop small molecule compounds with increased STING agonist activity against human STING. GSK reported a series of non-CDN small molecules, represented by compound 1[13], with good human STING agonistic activity. Based on our molecular modeling analysis, along with the reported CDN-STING crystal structures, we designed a novel series of fused tricyclic heterocycle compounds and analyzed their binding to human STING with thermal shift assays and the potency in activation of STING signaling with a reporter cellular assay (Supplementary Table S1). Thermal shift assays measure the difference between apo STING and ligand bound STING in the inflection point at which 50% of protein is thermally unfolded (ΔTm). […] The ability of compounds to activate the IRF reporter gene in the THP1 cells was also evaluated.
The melting temperature (Tm) of human STING was determined by calculating the temperature at the inflection point of the thermal melt curve generated on a Roche LightCycler 480 using 384 plate format and 465–590 nm filter set. […] Florescence was measured while ramping the plate temperature from 20 to 95 °C and the resulting data was processed using ROCHE data analysis software. Delta Tms were calculated by subtracting the Tm of untreated protein from ligand treated samples. […]

THP1 reporter cells = test: THP1 IRF luciferase reporter assay; format: cell-based; details: Homo sapiens, THP-1; IRF Lucia luciferase reporter, 24 h; read-out: THP1 reporter cell EC50
Text: as §2
THP1 reporter cells were treated for 24 h with a total of 100 k cells and 150 ul media in each well a 96-well plate. […] Luminescence signal was measured using Tecan infinite M1000. EC50 values were calculated using non-linear regression analysis of GraphPad Prism. Cell growth was monitored by CellTiter-Glo Luminescent Cell Viability Assay (Promega) per manufacture’s protocol. GI50 values were calculated using non-linear regression analysis of GraphPad Prism. […]

SMILES: Nc1ncnc2c1ncn2[C@@H]1O[C@@H]2COP(=O)([S-])O[C@@H]3[C@H](O)[C@@H](COP([O-])(=S)O[C@H]2[C@H]1O)O[C@H]3n1cnc2c(N)ncnc21.[Na+].[Na+] (some centres unmarked) [ADU-S100, reference compound]
GI50 (THP1-STING-R232 cells): 9440 nM
cell growth inhibition (THP1-STING-KO cells): not detectable
tumor response [1]: complete tumor regression

GI50 (THP1-STING-R232 cells; Homo sapiens): 100 nM
GI50 (MOLM-16 cells): 450 nM
GI50 (MV4-11 cells): 340 nM
SMILES: Nc1ccn([C@@H]2O[C@H](CO)[C@@H](O)[C@@H]2O)c(=O)n1 [cytarabine, reference compound]

Thermal shift ∆Tm (human STING): 5.7 °C
EC50 (THP1 reporter cells): 1600 nM
SMILES: C=CC[C@H]1COc2cc(C(N)=O)cc3nc(NC(=O)c4cc(C)nn4CC)n1c23 [Compound 2]
